{"source": "patent US20240415836A1", "about": "“COMPOSITION COMPRISING TWO ENZYME INHIBITORS TARGETING TWO DIFFERENT CONFORMATIONS OF AN ENZYME” (University College Dublin, priority 2018, published 2024)", "key": {"[1]": {"system": "DND41 (T-ALL leukaemia) cells", "assay": "Proliferation of DND41 cells, 4 days", "assay_type": "cell-based", "conditions": "doses exceeding 10 μM of each drug, alone and in combination", "method": "Inventors' model predictions were corroborated by cell line experiments where proliferation responses of T-ALL cells (DND41) to Type I inhibitor Ruxolitinib, Type II inhibitor CHZ868, and their combination were measured (FIG. 17). […] However, the inventors observed saturation of inhibition of cellular proliferation. […] This incomplete inhibition of proliferation is explained by activation of STAT family of transcription factors by alternative signalling pathways."}, "[2]": {"system": "RAF", "conditions": "literature values; cited from earlier work"}, "[3]": {"system": "HER2-positive breast cancer cells", "assay": "HER2-positive breast cancer cells stimulated with Heregulin (HRG)", "assay_type": "cell-based", "method": "Thus, in order to model conditions of resistance to ErbB inhibitors, all proliferation assays were performed in the presence of HRG."}, "[4]": {"system": "ERK signaling, MEL-JUSO cells", "assay": "ERK signaling in growing MEL-JUSO cells, Western Blot, 1 hr", "assay_type": "cell-based", "conditions": "trametinib at doses that do not fully inhibit ERK activation", "method": "Cells were transferred on ice, scraped using lysis buffer (10 mM Tris pH 7.5, 150 mM NaCl, and 0.5% (v/v) NP-40) complemented with protease and phosphatase inhibitors, and the cellular debris removed from the lysate by centrifugation at 10,000×g at 4° C. for 10 min. […] Lysates were then resolved by SDS PAGE (12%) and transferred on a polyvinylidene difluoride membrane (Millipore). Protein visualization was performed in combination with horseradish peroxidase-conjugated secondary antibodies (Cell Signalling Technologies) and the enhanced chemiluminescence system (GE Healthcare) using the Advanced Molecular Vision Chemi Image Unit associated with ChemoStar Imager (INTAS Science Imaging Instruments GmbH) for the following antibodies: Polyclonal rabbit anti-human mitogen-activated protein (MAP) kinase [extra-cellular signal-regulated kinase (ERK) 1 and ERK2] antibody (Sigma), monoclonal mouse anti-human MAP kinase activated (diphosphorylated ERK1 and ERK2) antibody (Sigma)."}, "[5]": {"system": "MEK signaling, A375 (WT RAS, BRAF^V600E/V600E) cells", "assay": "cells", "conditions": "Homo sapiens, A-375, 1 h, read-out: IC50, MEK signaling response", "method": "(§1) Cell lines were either purchased from ATCC (SKMEL2, A375) or DSMZ (MEL-JSUO). […] All cells were grown in RPMI (Gibco) supplemented with 2 mM L-glutamine and 10% (v/v) fetal bovine serum in a humidified atmosphere of 5% CO2 at 37° C. Cells were seeded in 12-well plates (Greiner CELLSTAR dishes) at the density of 10^5 cells per well. After reaching sufficient confluency, cells were treated with different concentrations of inhibitors and DMSO as control. To prepare the protein lysates, plates were transferred on ice, washed with ice-cold PBS and harvested by scraping in specific ELISA buffers as indicated below.\n(§2) Briefly, following the addition of complete MSD lysis buffer and scraping the cells from the surface of the dish, the cellular debris was removed from the lysate by centrifugation at 10000×g at 4° C. for 10 min. Protein concentration was determined using the BCA test according to the manufacturer's instructions (Pierce™ BCA Protein Assay Kit)."}, "[6]": {"system": "all RAF isoforms", "conditions": "literature (King 2006; Wan 2004; Wilhelm 2004); cited from earlier work"}, "[7]": {"system": "ERK signaling, MEL-JUSO cells", "assay": "ERK signaling (ppERK) in growing MEL-JUSO cells, MESOSCALE system, 24 hr", "assay_type": "cell-based", "conditions": "applied separately, high doses (12 μM), following paradoxical activation", "method": "as §1, §2"}, "[8]": {"system": "ERK signaling, MEL-JUSO cells", "assay": "ERK signaling (ppERK) in growing MEL-JUSO cells, LUMINEX xMAP, 24 hr", "assay_type": "cell-based", "conditions": "extending into the micromolar range", "quoted_text": "Following the addition of complete Luminex lysis buffer and scraping the cells from the surface of the dish, the cellular debris was removed from the lysate by centrifugation at 10000×g at 4° C. for 10 min. The pellet was discarded and the protein concentration of lysates was adjusted to 0.3 μg/μL using the BCA assay kit. xMAP assays were performed on a Luminex-3D platform (Luminex, Austin, TX) using commercially available phosphoprotein antibody-coupled beads (ProtATonce, Athens, Greece). […] Additionally, for loading control the levels of glyceraldehyde 3-phosphate dehydrogenase (GAPDH) protein were analyzed in a separate setting."}, "[9]": {"system": "MEL-JUSO cells", "assay": "Cell proliferation assay (MTS) in MEL-JUSO cells", "assay_type": "cell-based", "conditions": "Homo sapiens, read-out: GI50 (a dose inhibiting cell proliferation by 50%)", "method": "Cell proliferation was analyzed by CellTiter 96 Aqueous One Solution Cell Proliferation Assay (MTS; Promega) according to manufacturer's instructions. For this, 5,000 cells were plated per well of 96-well tissue culture plates (in 200 μL of medium)."}}, "note": "pIC50: −log10 of the molar value. Like-named read-outs stand apart in the source and are kept apart here.", "data": [{"smiles": "CC(=O)Nc1cc(Oc2ccc3c(nc(Nc4ccc(F)cc4F)n3C)c2C)ccn1", "note": "[CHZ868]", "values": [{"measurement": "plateau level of suppression of cellular proliferation", "setting": "[1]", "result": "~60", "unit": "%"}]}, {"smiles": "COC(=O)N[C@@H](C)CNc1nccc(-c2cn(C(C)C)nc2-c2cc(Cl)cc(NS(C)(=O)=O)c2F)n1", "note": "[LGX818]", "values": [{"measurement": "1/koff", "setting": "[2]", "result": "≥ 2", "unit": "h"}]}, {"smiles": "CS(=O)(=O)CCNCc1ccc(-c2ccc3ncnc(Nc4ccc(OCc5cccc(F)c5)c(Cl)c4)c3c2)o1", "note": "[Lapatinib]", "values": [{"measurement": "sensitivity of cells after stimulation with Heregulin (HRG)", "setting": "[3]", "result": "resistant to Lapatinib treatment"}]}, {"smiles": "N#CC[C@H](C1CCCC1)n1cc(-c2ncnc3[nH]ccc23)cn1", "note": "[Ruxolitinib]", "values": [{"measurement": "plateau level of suppression of cellular proliferation", "setting": "[1]", "result": "~60", "unit": "%"}]}, {"smiles": "CC(C)(C)c1nc(-c2cccc(NS(=O)(=O)c3c(F)cccc3F)c2F)c(-c2ccnc(N)n2)s1", "note": "[dabrafenib]", "values": [{"measurement": "effect on ERK signaling of addition to trametinib", "setting": "[4]", "result": "increases rather than decreases ERK signaling"}]}, {"smiles": "CNC(=O)c1cc(Oc2ccc(NC(=O)Nc3ccc(Cl)c(C(F)(F)F)c3)cc2)ccn1", "note": "[sorafenib]", "values": [{"measurement": "pIC50", "setting": "[5]", "result": 4.36}, {"measurement": "inhibition of RAF isoforms in in vitro kinase assays", "setting": "[6]", "result": "low nM range"}, {"measurement": "ppERK response", "setting": "[7]", "result": "could only slightly inhibit ppERK"}, {"measurement": "ERK response to each inhibitor applied separately", "setting": "[8]", "result": "marked paradoxical ERK activation"}, {"measurement": "GI50", "setting": "[9]; MEL-JUSO", "result": 8, "unit": "µM"}]}, {"smiles": "CCCS(=O)(=O)Nc1ccc(F)c(C(=O)c2c[nH]c3ncc(-c4ccc(Cl)cc4)cc23)c1F", "note": "[vemurafenib]", "values": [{"measurement": "GI50", "setting": "[9]; MEL-JUSO cells, applied individually", "result": 32, "unit": "µM"}]}]}
